Assay results published in US6407098B1, “Fungicidal aza-heterocycloalkenes” (Bayer Aktiengesellschaft, priority 1995, dated 2002).

Legend:
[1] = tested on: Venturia inaequalis; assay: Venturia test (apple)/protective; format: in vivo; settings: protective, active compound concentration 500 ppm, evaluation 12 days after inoculation
Protocol: Venturia test (apple)/protective Solvent: 12.5 parts by weight of acetone Emulsifier: 0.3 parts by weight of alkylaryl polyglycol ether To produce a suitable preparation of active compound, 1 part by weight of active compound is mixed with the stated amounts of solvent and emulsifier, and the concentrate is diluted with water to the desired concentration. To test for protective activity, young plants are sprayed with the preparation of active compound until dripping wet. After the spray coating has dried on, the plants are inoculated with an aqueous conidia suspension of the apple scab causative organism Venturia inaequalis and then remain in an incubation cabin at 20° C. and 100% relative atmospheric humidity for 1 day. The plants are then placed in a greenhouse at 20° C. and a relative atmospheric humidity of about 70%. Evaluation is carried out 12 days after the inoculation.

[2] = tested on: Erysiphe graminis f.sp. hordei; assay: Erysiphe test (barley)/protective; format: in vivo; settings: protective, active compound concentration 500 ppm, evaluation 7 days after inoculation
Protocol: Erysiphe test (barley)/protective Solvent: 12.5 parts by weight of N-methyl-pyrrolidone Emulsifier: 0.3 parts by weight of alkylaryl polyglycol ether To produce a suitable preparation of active compound, 1 part by weight of active compound is mixed with the stated amounts of solvent and emulsifier, and the concentrate is diluted with water to the desired concentration. To test for protective activity, young plants are sprayed with the preparation of active compound at the stated application rate. After the spray coating has dried on, the plants are dusted with spores of Erysiphe graminis f.sp. hordei. The plants are placed in a greenhouse at a temperature of about 20° C. and a relative atmospheric humidity of about 80%, in order to promote the development of powdery mildew pustules. Evaluation is carried out 7 days after the inoculation.

[3] = tested on: Podosphaera leucotricha; assay: Podosphaera test (apple)/protective; format: in vivo; settings: protective, active compound concentration 100 ppm, evaluation 10 days after inoculation
Protocol: Podosphaera test (apple)/protective Solvent: 4.7 parts by weight of acetone Emulsifier: 0.3 parts by weight of alkylaryl polyglycol ether To produce a suitable preparation of active compound, 1 part by weight of active compound is mixed with the stated amounts of solvent and emulsifier, and the concentrate is diluted with water to the desired concentration. To test for protective activity, young plants are sprayed with the preparation of active compound. After the spray coating has dried on, the plants are inoculated by dusting with conidia of the causative organism of apple mildew (Podosphaera leucotricha). The plants are then placed in a greenhouse at 23° C. and a relative atmospheric humidity of about 70%. Evaluation is carried out 10 days after the inoculation.

[4] = tested on: Sphaerotheca fuliginea; assay: Sphaerotheca test (cucumber)/protective; format: in vivo; settings: protective, active compound concentration 100 ppm, evaluation 10 days after inoculation
Protocol: Sphaerotheca test (cucumber)/protective Solvent: 4.7 parts by weight of acetone Emulsifier: 0.3 parts by weight of alkylaryl polyglycol ether To produce a suitable preparation of active compound, 1 part by weight of active compound is mixed with the stated amounts of solvent and emulsifier, and the concentrate is diluted with water to the desired concentration. To test for protective activity, young plants are sprayed with the preparation of active compound. After the spray coating has dried on, the plants are dusted with conidia of the fungus Sphaerotheca fuliginea. The plants are then placed in a greenhouse at 23 to 24° C. and at a relative atmospheric humidity of about 75%. Evaluation is carried out 10 days after the inoculation.

[5] = logP; format: physicochemical

| Compound | degree of action [1] [%] | degree of action [2] [%] | degree of action [3] [%] | degree of action [4] [%] | logP [5] |
| --- | --- | --- | --- | --- | --- |
| CO/N=C(/C1=NOCCS1)c1ccccc1COc1ccccc1C [Example I-2, 3-{1-[2-(2-methylphenoxymethyl)phenyl]-1-(methoximino)methyl}-5,6dihydro4H-1,4,2-oxathiazine] | 100 | 90 | 90 | 96 |  |
| CO/N=C(/C1=NOCCN1)c1ccccc1COc1ccccc1C [Example I-1, 3-{1-[2-(2-methylphenoxymethyl)-phenyl]-1-(methoximino)-methyl}-5,6-dihydro-4H-1,2,4-oxadiazine] | 100 | 90 |  |  |  |
| CON=C(C1=NN(C)CCO1)c1ccccc1COc1ccccc1C [Example I-3, 2-{1-methoximino-1-[2-(2-methylphenoxymethyl)-phenyl]-methyl}-4-methyl-5,6-dihydro4H-1,3,4oxadiazine] |  |  |  |  | 3.54 |
